Measured values reported in article PMC7019114, “Bioactivity, Compounds Isolated, Chemical Qualitative, and Quantitative Analysis of Cymbaria daurica Extracts” (Frontiers in Pharmacology, 2020).

Columns and labels:
[1] = system: streptozotocin-induced diabetic rats; set-up: method as in Huang et al., 2010; settings: intravenous injection, ref Huang et al., 2010; cited from earlier work
[2] = system: LPS-induced NO production in RAW 264.7 cell; test: Nitric oxide assay (Griess test), LPS-induced NO production; type: cell-based; settings: Mus musculus; RAW264.7 cell, LPS 1 μg/mL, positive control, n = 5; read-out: IC50 of inhibitory activity on LPS-induced NO production
Protocol: RAW 264.7 mouse macrophages were cultured in high glucose DMEM supplemented with 10% FBS and a mixture of penicillin and streptomycin. The cells were maintained in a humidified incubator with an atmosphere of 5% CO2 at 37°C. RAW 264.7 cells were plated at a density of 5 × 10^5 cells/mL in 24-well plates, cultured for 12 h, and then treated with LPS (1 μg/mL) and incubated for 4 h. Thereafter, the cells were treated with different concentrations (25, 50, 100, 200, and 400 μg/mL) of C. daurica extracts (water, n-butanol, ethyl acetate, and petroleum-ether extracts) and incubated for an additional 20 h. […] The amount of NO in the medium was detected using the Griess test. One hundred microliters of each supernatant were mixed with equal volume of Griess reagent (1% sulfanilamide in 5% phosphoric acid and 0.1% naphthylethylenediamine dihydrochloride in water). The absorbance of the mixture at 550 nm and concentration of nitrite were determined using serially diluted sodium nitrite as the standard ([Qiao et al., 2005]).

[3] = system: intestinal inflammation model; set-up: method as in Carrillo-Ocampo et al., 2013; settings: ref Carrillo-Ocampo et al., 2013; cited from earlier work
[4] = system: tyrosine phosphatase SHP-1; set-up: method as in Pesce et al., 2015; settings: U937 cell line; ref Pesce et al., 2015; cited from earlier work

Q: For `OC[C@H]1O[C@@H](O[C@@H]2OC=C[C@H]3[C@H](O)[C@@H]4O[C@]4(CO)[C@@H]23)[C@H](O)[C@@H](O)[C@@H]1O` [Compound 1, catalpol], which anti-hyperglycemic activity [1] is on record?
A: exhibited anti-hyperglycemic activity in a dose-dependent manner

Q: For `COc1ccc2c(c1)c(CC(=O)O)c(C)n2C(=O)c1ccc(Cl)cc1` [Indomethacin], which IC50 [2] is on record?
A: 60 ± 0.8 µM

Q: What does the source list for `C[C@@H]1O[C@@H](O[C@@H]2[C@@H](O)[C@H](OCCc3ccc(O)c(O)c3)O[C@H](CO)[C@H]2OC(=O)/C=C/c2ccc(O)c(O)c2)[C@H](O)[C@H](O)[C@H]1O` [Compound 7, verbascoside]?
A: presence of pro-inflammatory molecules [3]: decreased the presence of pro-inflammatory molecules; activity of tyrosine phosphatase SHP-1 [4]: increasing the activity of tyrosine phosphatase SHP-1
